{"source": "patent US20110224215A1", "about": "“PRE-SURGICAL TREATMENT” (GALDERMA LABORATORIES, INC., priority 2007, published 2011)", "key": {"[1]": {"test_system": "patients undergoing LASIK surgery", "conditions": "prophylactic dosages prior to LASIK surgery for primary myopia/myopic astigmatism or hyperopic astigmatism; cited from earlier work"}, "[2]": {"test_system": "area of skin where the incision will be made", "conditions": "bandage soaked in a solution of 0.25%, applied thirty minutes prior to surgery, removed immediately before incision", "from_the_text": "Thirty minutes prior to undergoing surgery for an appendectomy, a bandage that is soaked in a solution of 0.25% brimonidine is applied to the area of skin where the incision will be made. The bandage is removed immediately before the incision is made."}, "[3]": {"test_system": "facial skin", "conditions": "0.10% in a gel formulation, applied to facial skin fifteen minutes prior to shaving", "from_the_text": "Fifteen minutes prior to shaving, a person applies 0.10% brimonidine tartrate in a gel formulation to the facial skin where they will shave."}}}
{"smiles": "Brc1c(N=C2NCCN2)ccc2nccnc12", "note": "[brimonidine, 5-bromo-6-(2-imidazolidinylideneamino)quinoxaline]", "values": [{"measurement": "hyperemia", "setting": "[1]", "result": "less hyperemia"}, {"measurement": "occurrence of subconjunctival hemorrhage", "setting": "[1]", "result": "less occurrence"}, {"measurement": "bleeding and bruising following the surgical procedure", "setting": "[2]", "result": "will significantly reduce bleeding and bruising"}]}
{"smiles": "Brc1c(N=C2NCCN2)ccc2nccnc12.O=C(O)C(O)C(O)C(=O)O", "note": "[brimonidine tartrate, 5-bromo-6-(2-imidazolidinylideneamino) quinoxaline L-tartrate]", "values": [{"measurement": "bleeding from cuts while shaving", "setting": "[3]", "result": "will prevent excessive bleeding"}]}
